22 molecules from patent US8785429B2, “Dihydropyrrolonaphthyridinone compounds as inhibitors of JAK” (Takeda Pharmaceutical Company Limited, priority 2009, dated 2014) can be followed below.

One assay deals with T1, JAK2 (Homo sapiens, UniProt O60674).
T1 construct: purchased Invitrogen
Briefly: Assay for JAK2 Inhibition (phosphorylation of FAM-labeled substrate, Caliper LC-3000). The note with it: −log10(IC50), IC50 is the molar concentration at 50% inhibition; read-out: JAK2 pIC50 (converted). Type of assay: biochemical. How it is done:
(§1) A compound's ability to inhibit JAK activity may be assessed using a variety of methods, including in vitro and in vivo assays. The following in vitro assays measure a test compound's ability to inhibit JAK2- and JAK3-mediated phosphorylation of FAM-labeled JAK-specific substrates.
(§2) Purified JAK2 and JAK3 proteins were purchased from Invitrogen. JAK2 and JAK3 inhibition is determined using a black 384-well-plate format in buffer containing 50 mM HEPES, 10 mM NaCl, 10 mM MgCl2, 0.2 mM EDTA, 0.01% EDA (Brij® 35), 1 mM DTT, 0.1 mg/mL BSA at pH 7.3. Each test compound is prepared in DMSO using 2-fold serial dilutions for 11 data points and is added to the buffer so that each dilution contains 3% DMSO.
To each well is added 2 μL of 3 μM 5FAM-KKKKEEIYFFFG-NH2 and 45 μM ATP (in buffer), 2 μL of diluted test compound (3% DMSO in medium), and 2 μL of 0.6 nM JAK2 in buffer. The reaction mixture is incubated at room temperature for 60 min and is quenched by adding 50 mM HEPeX, 30 mM EDTA, and 0.1% Tx-100 (pH 7.3). To quantify the fluorescent-labeled substrate and product following reaction, the test plate is loaded on a Caliper LC-3000, which measures percent of conversion by microfluidic-based separation.
(§3) Corresponding IC50 values are calculated by non-linear curve fitting of the compound concentrations and percent of inhibition to the standard IC50 equation.

In the next assay the target is T2, JAK3 (Homo sapiens, UniProt P52333).
T2 construct: purchased Invitrogen
T2 sequence (P52333 1-1124): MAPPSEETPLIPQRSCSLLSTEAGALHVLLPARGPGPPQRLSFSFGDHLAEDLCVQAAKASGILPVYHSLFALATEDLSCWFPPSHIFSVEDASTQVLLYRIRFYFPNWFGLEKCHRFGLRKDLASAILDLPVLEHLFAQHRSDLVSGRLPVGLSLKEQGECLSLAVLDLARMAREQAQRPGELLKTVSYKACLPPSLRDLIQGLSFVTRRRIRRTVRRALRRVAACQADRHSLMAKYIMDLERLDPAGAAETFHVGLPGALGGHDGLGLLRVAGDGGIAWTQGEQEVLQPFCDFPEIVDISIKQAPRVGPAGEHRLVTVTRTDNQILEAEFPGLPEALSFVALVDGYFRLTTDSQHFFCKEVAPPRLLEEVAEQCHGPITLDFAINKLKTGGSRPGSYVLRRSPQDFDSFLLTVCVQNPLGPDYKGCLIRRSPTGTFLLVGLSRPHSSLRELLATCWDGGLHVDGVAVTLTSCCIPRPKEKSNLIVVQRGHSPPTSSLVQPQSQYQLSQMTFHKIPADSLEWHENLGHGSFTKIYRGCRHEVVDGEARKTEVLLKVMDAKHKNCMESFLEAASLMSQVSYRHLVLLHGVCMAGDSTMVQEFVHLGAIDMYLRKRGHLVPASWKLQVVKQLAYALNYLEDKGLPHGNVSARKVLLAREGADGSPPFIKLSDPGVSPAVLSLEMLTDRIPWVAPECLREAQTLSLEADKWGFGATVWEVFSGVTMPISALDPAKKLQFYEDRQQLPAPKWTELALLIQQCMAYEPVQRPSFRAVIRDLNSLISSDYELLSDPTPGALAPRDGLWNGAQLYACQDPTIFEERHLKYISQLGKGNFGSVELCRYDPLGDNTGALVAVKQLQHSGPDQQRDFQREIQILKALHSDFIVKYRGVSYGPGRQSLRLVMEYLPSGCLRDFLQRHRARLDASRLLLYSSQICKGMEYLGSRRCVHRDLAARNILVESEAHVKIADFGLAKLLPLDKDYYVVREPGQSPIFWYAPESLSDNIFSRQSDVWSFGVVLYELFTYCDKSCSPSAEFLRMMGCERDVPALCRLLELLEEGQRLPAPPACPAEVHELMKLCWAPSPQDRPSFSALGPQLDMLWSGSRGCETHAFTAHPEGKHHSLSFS
Briefly: Assay for JAK3 Inhibition (phosphorylation of FAM-labeled substrate, Caliper LC-3000). It counts as biochemical. Particulars: −log10(IC50), IC50 is the molar concentration at 50% inhibition; read-out: JAK3 pIC50 (converted). As for the experimental part: as §1, §2
To each well is added 2 μL of 3 μM 5FAM-KKKKEEIYFFFG-NH2 and 15 μM ATP (in buffer), 2 μL of diluted test compound (3% DMSO in medium), and 2 μL of 1.2 nM JAK3 in buffer. The reaction mixture is incubated at room temperature for 60 min and is quenched by adding 50 mM HEPES, 30 mM EDTA, and 0.1% Tx-100 (pH 7.3). To quantify the fluorescent-labeled substrate and product following reaction, the test plate is loaded on a Caliper LC-3000, which measures percent of conversion by microfluidic-based separation.
as §3

T1 sequence (O60674 whole entry): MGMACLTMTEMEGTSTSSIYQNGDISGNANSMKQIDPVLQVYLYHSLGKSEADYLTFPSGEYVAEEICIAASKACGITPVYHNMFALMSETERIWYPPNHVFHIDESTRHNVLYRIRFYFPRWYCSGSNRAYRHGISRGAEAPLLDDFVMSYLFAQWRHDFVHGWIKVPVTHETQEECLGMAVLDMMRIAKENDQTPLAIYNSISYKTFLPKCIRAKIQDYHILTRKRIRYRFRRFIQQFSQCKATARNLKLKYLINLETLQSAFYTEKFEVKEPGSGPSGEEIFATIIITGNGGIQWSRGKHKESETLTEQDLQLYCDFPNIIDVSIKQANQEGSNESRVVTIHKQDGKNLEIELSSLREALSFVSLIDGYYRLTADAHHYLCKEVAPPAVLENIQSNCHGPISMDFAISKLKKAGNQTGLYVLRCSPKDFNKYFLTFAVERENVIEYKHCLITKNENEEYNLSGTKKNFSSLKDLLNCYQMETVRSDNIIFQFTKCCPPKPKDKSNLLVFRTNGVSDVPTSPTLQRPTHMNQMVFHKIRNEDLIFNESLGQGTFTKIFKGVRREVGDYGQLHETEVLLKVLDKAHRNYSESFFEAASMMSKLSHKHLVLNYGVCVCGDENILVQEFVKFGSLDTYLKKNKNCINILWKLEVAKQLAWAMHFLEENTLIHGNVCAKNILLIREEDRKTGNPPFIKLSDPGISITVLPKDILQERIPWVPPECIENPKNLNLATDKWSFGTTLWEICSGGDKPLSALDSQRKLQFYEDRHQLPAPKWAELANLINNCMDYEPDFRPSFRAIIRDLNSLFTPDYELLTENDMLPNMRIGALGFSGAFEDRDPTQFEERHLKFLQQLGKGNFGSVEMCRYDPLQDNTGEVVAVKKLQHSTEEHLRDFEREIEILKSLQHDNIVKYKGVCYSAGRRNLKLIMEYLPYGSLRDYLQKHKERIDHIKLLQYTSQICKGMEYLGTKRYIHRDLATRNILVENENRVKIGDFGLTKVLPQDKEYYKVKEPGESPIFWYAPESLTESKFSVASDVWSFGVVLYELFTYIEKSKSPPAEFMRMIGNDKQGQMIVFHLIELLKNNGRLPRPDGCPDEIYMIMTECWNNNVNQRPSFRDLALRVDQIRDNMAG

Take `O=C1c2ccnc3[nH]cc(c23)CN1C1CCNCC1` [Example 2, 4-(piperidin-4-yl)-3,4-dihydropyrrolo[4,3,2-de][2,6]naphthyridin-5(1H)-one]: the IC50 at JAK2 is 6310 nM; on JAK3 it was 3980 nM.

As for `N#CCC(=O)N1CCC(N2Cc3c[nH]c4nccc(c34)C2=O)CC1` [Example 3, 3-oxo-3-(4-(5-oxopyrrolo[4,3,2-de][2,6]naphthyridin-4(1H,3H,5H)-yl)piperidin-1-yl)propanenitrile], the IC50 is 794 nM at JAK2 and 1580 nM at JAK3.

For the molecule `CC1(N2Cc3c[nH]c4nccc(c34)C2=O)CCN(C(=O)CC#N)CC1` [Example 6, 3-(4-methyl-4-(5-oxopyrrolo[4,3,2-de][2,6]naphthyridin-4(1H,3H,5H)-yl)piperidin-1-yl)-3-oxopropanenitrile], the IC50 at JAK2 was 79.4 nM; at JAK3 it was 501 nM.

In the case of `CCC1(N2Cc3c[nH]c4nccc(c34)C2=O)CCN(C(=O)CC#N)CC1` [Example 9, 3-(4-ethyl-4-(5-oxopyrrolo[4,3,2-de][2,6]naphthyridin-4(1H,3H,5H)-yl)piperidin-1-yl)-3-oxopropanenitrile], the results for the IC50 on JAK2 and at JAK3 were 20 nM and 10 nM, respectively.

Turning to `CCC(CC)N1Cc2c[nH]c3nccc(c23)C1=O` [Example 10, 4-(pentan-3-yl)-3,4-dihydropyrrolo[4,3,2-de][2,6]naphthyridin-5(1H)-one], the IC50 at JAK2 was 79.4 nM; on JAK3, 100 nM.

As to `O=C1c2ccnc3[nH]cc(c23)CN1C(CCO)C1CC1` (centres unmarked) [Example 11, 4-(1-cyclopropyl-3-hydroxypropyl)-3,4-dihydropyrrolo[4,3,2-de][2,6]naphthyridin-5(1H)-one], the IC50 was 398 nM at JAK2 and 316 nM on JAK3.

Take `CC(C)(C)OC(=O)N1CCC(CN2Cc3c[nH]c4nccc(c34)C2=O)C1` (centres unmarked) [Example 12, Tert-Butyl 3-((5-oxopyrrolo[4,3,2-de][2,6]naphthyridin-4(1H,3H,5H)-yl)methyl)pyrrolidine-1-carboxylate]: the IC50 is 3160 nM at JAK2 and 7940 nM at JAK3.

Turning to `O=C1c2ccnc3[nH]cc(c23)CN1CC1CCNC1` (centres unmarked) [Example 13, 4-(pyrrolidin-3-ylmethyl)-3,4-dihydropyrrolo[4,3,2-de][2,6]naphthyridine-5(1H)-one], the values for the IC50 at JAK2 and on JAK3 were 5010 nM and 3160 nM, respectively.

`CCC(=O)N1CCC(CC)(N2Cc3c[nH]c4nccc(c34)C2=O)CC1` [Example 16, 4-(4-ethyl-1-propionylpiperidin-4-yl)-3,4-dihydropyrrolo[4,3,2-de][2,6]naphthyridin-5(1H)-one]: the IC50 at JAK2 is 10 nM; on JAK3 it was 50.1 nM.

As for `CCC1(N2Cc3c[nH]c4nccc(c34)C2=O)CCN(c2ccncn2)CC1` [Example 17, 4-(4-ethyl-1-(pyrimidin-4-yl)piperidin-4-yl)-3,4-dihydropyrrolo[4,3,2-de][2,6]naphthyridin-5(1H)-one], the IC50 on JAK2 is 5.01 nM; at JAK3, 12.6 nM.

Regarding `CC[C@@H](C(=O)N1CCCC1)N1Cc2ccnc3[nH]cc(c23)C1=O` [Example 18, (S)-4-(1-oxo-1-(pyrrolidin-1-yl)butan-2-yl)-4,5-dihydropyrrolo[4,3,2-de][2,6]naphthyridin-3(1H)-one], the IC50 at JAK2 and on JAK3 was 20000 nM in each case.

In the case of `CC[C@H](C(=O)N1CCCC1)N1Cc2ccnc3[nH]cc(c23)C1=O` [Example 19, (R)-4-(1-oxo-1-(pyrrolidin-1-yl)butan-2-yl)-4,5-dihydropyrrolo[4,3,2-de][2,6]naphthyridin-3(1H)-one], the IC50 on JAK2 was 3980 nM; on JAK3, 316 nM.

As for `CC(C)[C@H](C(=O)N1CCCC1)N1Cc2ccnc3[nH]cc(c23)C1=O` [Example 20, (R)-4-(3-methyl-1-oxo-1-(pyrrolidin-1-yl)butan-2-yl)-4,5-dihydropyrrolo[4,3,2-de][2,6]naphthyridin-3(1H)-one], the IC50 at JAK2 is 1580 nM; on JAK3 it was 79.4 nM.

Regarding `CC(C)C[C@H](C(=O)N1CCCC1)N1Cc2ccnc3[nH]cc(c23)C1=O` [Example 21, (R)-4-(4-methyl-1-oxo-1-(pyrrolidin-1-yl)pentan-2-yl)-4,5-dihydropyrrolo[4,3,2-de][2,6]naphthyridin-3(1H)-one], the IC50 on JAK2 was 794 nM; on JAK3 it was 126 nM.

As to `CC(C)[C@H](C(=O)NC1CCCC1)N1Cc2ccnc3[nH]cc(c23)C1=O` [Example 22, (R)—N-cyclopentyl-3-methyl-2-(3-oxopyrrolo[4,3,2-de][2,6]naphthyridin-4(1H,3H,5H)-yl)butanamide], the figures for the IC50 at JAK2 and at JAK3 were 631 nM and 31.6 nM, respectively.

On to `CC[C@@H](C)[C@H](C(=O)NC1CCCC1)N1Cc2ccnc3[nH]cc(c23)C1=O` [Example 23, (2R,3R)—N-cyclopentyl-3-methyl-2-(3-oxopyrrolo[4,3,2-de][2,6]naphthyridin-4(1H,3H,5H)-yl)pentanamide], for which the figures for the IC50 at JAK2 and at JAK3 were 3980 nM and 398 nM, respectively.

For the molecule `CC[C@H](C)[C@H](C(=O)NC1CCCC1)N1Cc2ccnc3[nH]cc(c23)C1=O` [Example 24, (2R,3S)—N-cyclopentyl-3-methyl-2-(3-oxopyrrolo[4,3,2-de][2,6]naphthyridin-4(1H,3H,5H)-yl)pentanamide], the figures for the IC50 on JAK2 and on JAK3 were 12600 nM and 1580 nM, respectively.

On to `O=C(NC1CCCC1)[C@@H](C1CC1)N1Cc2ccnc3[nH]cc(c23)C1=O` [Example 25, (R)—N-cyclopentyl-2-cyclopropyl-2-(3-oxopyrrolo[4,3,2-de][2,6]naphthyridin-4(1H,3H,5H)-yl)acetamide], for which the IC50 on JAK2 is 1580 nM; at JAK3, 200 nM.

With `CC(C)(C)[C@H](C(=O)NC1CCCC1)N1Cc2ccnc3[nH]cc(c23)C1=O` [Example 26, (R)—N-cyclopentyl-3,3-dimethyl-2-(3-oxopyrrolo[4,3,2-de][2,6]naphthyridin-4(1H,3H,5H)-yl)butanamide], the IC50 was 126 nM at JAK2 and 10 nM on JAK3.

As to `O=C(NC1CCCC1)[C@@H](C1CCCC1)N1Cc2ccnc3[nH]cc(c23)C1=O` [Example 27, (R)—N,2-dicyclopentyl-2-(3-oxopyrrolo[4,3,2-de][2,6]naphthyridin-4(1H,3H,5H)-yl)acetamide], the IC50 is 3160 nM on JAK2 and 251 nM on JAK3.

Consider `O=C(NC1CCCC1)[C@@H](CC(F)(F)F)N1Cc2ccnc3[nH]cc(c23)C1=O` [Example 28, (R)—N-cyclopentyl-4,4,4-trifluoro-2-(3-oxopyrrolo[4,3,2-de][2,6]naphthyridin-4(1H,3H,5H)-yl)butanamide], for which the IC50 at JAK2 is 10000 nM; at JAK3, 398 nM.

Regarding `CC(C)(O)[C@H](C(=O)NC1CCCC1)N1Cc2ccnc3[nH]cc(c23)C1=O` [Example 29, (R)—N-cyclopentyl-3-hydroxy-3-methyl-2-(3-oxopyrrolo[4,3,2-de][2,6]naphthyridin-4(1H,3H,5H)-yl)butanamide], the IC50 on JAK2 is 3160 nM; on JAK3, 158 nM.
